Results taken from patent publication US20150112057A1, “NOVEL CRYSTALLINE CEFOPERAZONE INTERMEDIATE” (DSM Sinochem Pharmaceuticals Netherlands B.V., priority 2011, published 2015).

Tests used:
[1] = Chemical degradation of 7-TMCA to 5-mercapto-1-methyltetrazole during dissolution and enzymatic condensation; format: physicochemical; conditions: during the dissolution step, titration with aqueous NaOH 5M
Description: (§1) The reactions were followed by quantitative HPLC analysis. The retention factors of 7-TMCA, HPGM, HPG and 5-mercapto-1-methyltetrazole were calculated using standards; the retention factor of D-7-(4-hydroxyphenylacetamido)-3-(1-methyl-1H-tetrazol-5-yl)thiomethylcephem-4-carboxylic acid was deducted based on mass balance in the first experiments and subsequently calculated using standard; the retention factor of cefatrizine was deducted on mass balance.
7-Amino-3-(1-methyl-1H-tetrazol-5-ylthiomethyl)-3-cephem-4-carboxylic acid (7-TMCA; 5 g) was added to distilled water (38 g) and cooled to 3° C. The mixture was stirred at 400 rpm and the pH was brought to 9.0 with aqueous NaOH (5M) whereafter the remainder of the reaction was carried out at pH 8.8. After 60-80 min, the suspension was filtered. The filtrate, containing 4.1 g of 7-TMCA, was place back in the reactor and immobilized penicillin G acylase mutant 1 (3.5 g, see Materials and Methods) was added and to the resulting mixture a solution of D-4-hydroxyphenylglycine methylester (HPGM) was dropped at speed of 7 mL/h by a syringe pump (dosing time 2 h). This solution was prepared by dissolving HPGM (4.0 g, 1.7 equiv.) in water (6.4 g) and H2SO4 25% (4.25 g in water). The enzymatic reaction was followed by analytical HPLC (see Materials and Methods) and stopped at the end of HPGM addition, by enzyme filtration. […]

[2] = Chemical hydrolysis of HPGM to HPG (chemical blank, no enzyme); format: physicochemical; conditions: water pH 8.7, 2° C.
Description: as §1
During the enzymatic condensation of 7-TMCA and HPGM the latter compound was hydrolyzed to HPG. […] Two reactions were started in parallel at 2° C. […] In one of the reactors immobilized penicillin G acylase mutant 1 (5 g) was added and the two reactions were monitored by analytical HPLC.

[3] = target: T1, immobilized penicillin G acylase mutant 1 (Escherichia coli, UniProt P06875, F313A/F749L/S29L/V218E/V437L); test: Enzymatic hydrolysis of HPGM to HPG; format: biochemical; conditions: water pH 8.7, 2° C., immobilized penicillin G acylase mutant 1 (5 g)
T1 construct: mutations V11A, A:S3L, A:V192E, B:F24A, B:V148L and B:F460L; made in house
From the text: The production, isolation and purification of wild type and mutant penicillin G acylases may be carried out as described in WO 1996/005318 and WO 2003/055998. Alternatively, genes encoding mutant penicillin G acylases may be obtained by gene synthesis. Production of the mutant penicillin G acylase was achieved by cloning the genes encoding mutant penicillin G acylases into an appropriate expression vector, transforming a suitable host such as Escherichia coli with said vector and culturing the transformed host under conditions suitable for the production of the mutant penicillin G acylases and recovery and purification of the mutants was carried out as described in WO 2010/072765. […]
as §1
During the enzymatic condensation of 7-TMCA and HPGM the latter compound was hydrolyzed to HPG. […] In one of the reactors immobilized penicillin G acylase mutant 1 (5 g) was added and the two reactions were monitored by analytical HPLC.

Row | SMILES | amount of 5-mercapto-1-methyltetrazole (degradation product of 7-TMCA) [1] | HPGM hydrolyzed in the chemical blank ([2]; 20 h) [%] | formation of HPG from HPGM in the chemical blank ([2]; within 2 h) | time to complete conversion of HPGM to HPG by the enzyme [3] [min]
1 | Cn1nnnc1SCC1=C(C(=O)O)N2C(=O)[C@@H](N)[C@H]2SC1 [Example 7-TMCA, 7-amino-3-(1-methyl-1H-tetrazol-5-ylthiomethyl)-3-cephem-4-carboxylic acid] | not detectable | – | – | –
2 | COC(=O)[C@H](N)c1ccc(O)cc1 [HPGM, D-4-hydroxyphenylglycine methylester] | – | 9 | no HPG was recorded | ≤ 5
